From patent publication US5284838A, “Use of 2,2-dimethylchroman-3-ol derivatives in the treatment of asthma” (Elf Sanofi, priority 1987, dated 1994)
Where two headings read alike, the source gives them in different places.

Legend:
[1] = system: Isolated Rat Portal Vein; experiment: Isolated Rat Portal Vein: inhibition of spontaneous contractile activities; assay type: cell-based, Male Sprague Dawley rats; details: for IC50: Rattus norvegicus, 0.25 h; for times more active than Product A: relative to Product A, isolated rat portal vein
Protocol: Male Sprague Dawley rats (250-300 g) are stunned and then bled after their throats have been cut. The portal vein, ligated in situ at two points 15 mm apart, is isolated, cut longitudinally and then mounted vertically in an experimental cell containing a physiological solution, at 37° C., of the following composition (mmol/l): NaCl:137; KCl: 5.4; MgCl2 : 1.05; CaCl2 : 1.8; NaH2 PO4 : 1.2; NAHCO3 : 15.5; glucose: 11.5, into which a mixture of gases containing 95% of oxygen and 5% of carbon dioxide is bubbled.
The vein is subjected to a tension of 500 mg. After a period of stabilization (about 1 h 30 min), the spontaneous contractile activities are recorded with the aid of an isometric sensor. Each measurement is performed successively on 4 preparations.
The results are expressed in the form of the molar concentration which causes a 50 per cent inhibition of the spontaneous contractile activities (IC50).

[2] = system: Guinea-pig Papillary Muscle; experiment: Guinea-pig Papillary Muscle: ventricular action potential; assay type: cell-based, Male Albino Charles River guinea-pigs; details: Cavia porcellus, 0.5 h; 36° C., 60 beats per minute, 30 minutes of perfusion per concentration; read-out: Duration of the action potential: IC50 (50 per cent reduction in the duration of the AP)
Protocol: Male Albino Charles River guinea-pigs (300-400 g) are stunned and then bled after their throats have been cut. The heart is isolated and opened and the right papillary muscle is excised and then kept alive in an experimental cell containing a physiological solution at 36° C. (composition described above).
The preparation is stimulated with the aid of a bipolar electrode connected to a stimulator (frequency=60 beats per minute). The ventricular action potential is measured by the conventional microelectrode method. The characteristic parameters were measured on the action potentials (AP) before and after the introduction of the test product at 3 successive increasing concentrations (30 minutes of perfusion per concentration). The concentration which produces a 50 per cent reduction in the duration of the AP is indicated (IC50).

[3] = system: Vigilant Spontaneously Hypertensive Rats (SHR); experiment: Antihypertensive Activity on Vigilant Spontaneously Hypertensive Rats (SHR); assay type: in vivo, male SHR (of the Wistar strain) rats; details: for duration of action compared with Product A: p.o.
Protocol: The experiment is performed on male SHR (of the Wistar strain) aged between 11 and 12 weeks; under pentobarbital anesthesia, a catheter is implanted in a carotid artery on the day before the experiment. In the experiment, the diastolic pressure (DP) and systolic pressure (SP) of the vigilant animals are recorded continuously 1 hour before and up to 2 hours after administration of the product. The heart rate (HR) is determined from the pulse pressure and recorded continuously for the same time.
The products were administered orally in a volume of 2 ml per 100 g of body weight after suspension in a 5% aqueous solution of gum arabic.

[4] = system: mice; experiment: Acute toxicity on mice by oral administration; assay type: in vivo; details: 1000 mg/kg, 10 mice
[5] = system: Vigilant Dogs; experiment: Antiarrhythmic Activity on Vigilant Dogs; assay type: in vivo; details: orally
Protocol: The method used is that described by Dupuis et al. (Br. J. Pharmacol., 1976, 58, p. 409), in which an acute infarction is caused by the insertion of a copper spiral into the coronary circulation, with the thorax closed off. The electrocardiogram is measured by telemetry and the extrasystoles are analyzed and counted automatically while the animal is being monitored by an internal television circuit. The products were administered orally to animals presenting at least 50 percent of extrasystoles.

[6] = 37° C., 15 min per concentration, read-out: IC50 of the spontaneous contractile activities of isolated rat portal vein
[7] = unit inferred, read-out: IC50 values equal to or less than (isolated rat portal vein)

Row | Compound | IC50 [1, 6] [µM] | IC50 [1, 7] [µM] | IC50 [2] [µM] | Maximum decrease in mean blood pressure (±s.e.) ([3]; 0.03 mg/kg p.o.) | Maximum decrease in mean blood pressure (±s.e.) ([3]; 0.10 mg/kg p.o.) | times more active than Product A [1] | also measured
1 | CC1(C)Oc2ccc(C#N)cc2[C@@H](n2ccc(F)cc2=O)[C@@H]1O (relative stereo) [SR 45 311, trans-6-Cyano-4-(1,2-dihydro-4-fluoro-2-oxopyrid-1-yl)-2,2-dimethylchroman-3-ol] | 0.05 |  |  |  |  |  | 
2 | CC1(C)Oc2ccc(C#N)cc2[C@@H](N2CCCC2=O)[C@@H]1O (relative stereo) [Product A, trans-6-Cyano-4-(2-oxopyrrolidin-1-yl)-2,2-dimethylchroman-3-ol, reference compound] | 0.068 |  | 16 | 16 ± 5 mm of mercury | 30 ± 10 mm of mercury |  | acute toxicity: survival / death of the animals [4]: all 10 animals died
3 | Cc1ccn([C@@H]2c3cc(C#N)ccc3OC(C)(C)[C@H]2O)c(=O)c1 (relative stereo) [SR 45 135] | 0.08 |  |  |  |  |  | 
4 | CC1(C)Oc2ccc(C#N)cc2[C@@H](n2ncccc2=O)[C@@H]1O (relative stereo) [SR 44 758, trans-6-Cyano-4-(1,6-dihydro-6-oxopyridazin-1-yl)-2,2-dimethylchroman-3-ol] | 0.13 |  |  | 12 ± 2 mm of mercury | 33 ± 5 mm of mercury |  | 
5 | CC1(C)Oc2ccc(C#N)cc2[C@@H](n2ccncc2=O)[C@@H]1O (relative stereo) [SR 45 067] | 0.077 |  |  |  |  |  | 
6 | Cc1cc(O)nn([C@@H]2c3cc(C#N)ccc3OC(C)(C)[C@H]2O)c1=O (relative stereo) [SR 45 209, trans-6-Cyano-4-(I,6-dihydro-3-hydroxy-5-methyl-6-oxopyridazin-1-yl)-2,2-dimethylchroman-3-ol] | 0.058 |  |  |  |  |  | 
7 | Cc1ccc(=O)n([C@@H]2c3cc(C#N)ccc3OC(C)(C)[C@H]2O)n1 (relative stereo) [SR 45 225, trans-6-Cyano-4-(I,6-dihydro-3-methyl-6-oxopyridazin-1-yl)-2,2-dimethylchroman-3-ol] | 0.088 |  |  |  |  |  | 
8 | CC1(C)Oc2ccc(C#N)cc2[C@@H](n2ccccc2=O)[C@@H]1O (relative stereo) [SR 44 709, trans-6-Cyano-4-(I,2-dihydro-2-oxopyrid-1-yl)2,2-dimethylchroman-3-ol] | 0.09 |  | 20 |  | 39 ± 12 mm of mercury |  | Maximum decrease in mean blood pressure (±s.e.) ([3]; 0.06 mg/kg p.o.): 21 ± 5 mm of mercury; antiarrhythmic activity (reducing the number of extrasystoles or restoring a sinus rhythm) ([5]; 1 mg/kg): substantial antiarrhythmic activity; acute toxicity: survival / death of the animals [4]: all the animals survived

The next compounds have a lower IC50 [1, 6] than those just listed; values first:

Row | IC50 [1, 6] [µM] | IC50 [1, 7] [µM] | Compound | IC50 [2] [µM] | Maximum decrease in mean blood pressure (±s.e.) ([3]; 0.03 mg/kg p.o.) | Maximum decrease in mean blood pressure (±s.e.) ([3]; 0.10 mg/kg p.o.) | times more active than Product A [1] | also measured
9 | 0.034 | ≤ 0.034 | CC1(C)Oc2ccc(C#N)cc2[C@@H](n2ccc(O)cc2=O)[C@@H]1O (relative stereo) [SR 44 793, trans-6-Cyano-4-(I,2-dihydro-4-hydroxy-2-oxopyrid-1-yl)-2,2-dimethylchroman-3-ol] | 2.7 | 22 ± 2 mm of mercury | 50 ± 9 mm of mercury | at least 5 times | Maximum decrease in mean blood pressure (±s.e.) ([3]; 0.06 mg/kg p.o.): 26 ± 3 mm of mercury; duration of action compared with Product A [3]: longer duration of action than Product A; antiarrhythmic activity (reducing the number of extrasystoles or restoring a sinus rhythm) ([5]; between 0.1 and 0.5 mg/kg): substantial antiarrhythmic activity
10 | 0.026 | ≤ 0.034 | CC1(C)Oc2ccc(C#N)cc2[C@@H](n2ccc(Cl)cc2=O)[C@@H]1O (relative stereo) [SR 45 012] |  |  |  | at least 5 times | 
11 | 0.02 | ≤ 0.034 | Cc1cc(=O)n([C@@H]2c3cc(C#N)ccc3OC(C)(C)[C@H]2O)nc1O (relative stereo) [SR 45 218, trans-6-Cyano-4-(I,6-dihydro-3-hydroxy-4-methyl-6-oxopyridazin-1-yl)-2,2-dimethylchroman-3-ol] |  |  |  | at least 5 times | 
12 | 0.009 | ≤ 0.034 | CC1(C)Oc2ccc(C#N)cc2[C@@H](n2nc(O)ccc2=O)[C@@H]1O (relative stereo) [SR 44 994, trans-6-Cyano-4-(I,6-dihydro-3-hydroxy-6-oxopyridazin-1-yl)-2,2-dimethylchroman-3-ol] | 4 | 14 ± 0 mm of mercury | 37 ± 4 mm of mercury | at least 5 times | duration of action compared with Product A [3]: longer duration of action than Product A
